In PMC4993765, “Shikonin Inhibits Intestinal Calcium-Activated Chloride Channels and Prevents Rotaviral Diarrhea” (Frontiers in Pharmacology, 2016):

Biological target: T1, TMEM16A (Homo sapiens, UniProt Q5XXA6)
T1 construct: gene ANO1
T1 sequence (Q5XXA6 1-986): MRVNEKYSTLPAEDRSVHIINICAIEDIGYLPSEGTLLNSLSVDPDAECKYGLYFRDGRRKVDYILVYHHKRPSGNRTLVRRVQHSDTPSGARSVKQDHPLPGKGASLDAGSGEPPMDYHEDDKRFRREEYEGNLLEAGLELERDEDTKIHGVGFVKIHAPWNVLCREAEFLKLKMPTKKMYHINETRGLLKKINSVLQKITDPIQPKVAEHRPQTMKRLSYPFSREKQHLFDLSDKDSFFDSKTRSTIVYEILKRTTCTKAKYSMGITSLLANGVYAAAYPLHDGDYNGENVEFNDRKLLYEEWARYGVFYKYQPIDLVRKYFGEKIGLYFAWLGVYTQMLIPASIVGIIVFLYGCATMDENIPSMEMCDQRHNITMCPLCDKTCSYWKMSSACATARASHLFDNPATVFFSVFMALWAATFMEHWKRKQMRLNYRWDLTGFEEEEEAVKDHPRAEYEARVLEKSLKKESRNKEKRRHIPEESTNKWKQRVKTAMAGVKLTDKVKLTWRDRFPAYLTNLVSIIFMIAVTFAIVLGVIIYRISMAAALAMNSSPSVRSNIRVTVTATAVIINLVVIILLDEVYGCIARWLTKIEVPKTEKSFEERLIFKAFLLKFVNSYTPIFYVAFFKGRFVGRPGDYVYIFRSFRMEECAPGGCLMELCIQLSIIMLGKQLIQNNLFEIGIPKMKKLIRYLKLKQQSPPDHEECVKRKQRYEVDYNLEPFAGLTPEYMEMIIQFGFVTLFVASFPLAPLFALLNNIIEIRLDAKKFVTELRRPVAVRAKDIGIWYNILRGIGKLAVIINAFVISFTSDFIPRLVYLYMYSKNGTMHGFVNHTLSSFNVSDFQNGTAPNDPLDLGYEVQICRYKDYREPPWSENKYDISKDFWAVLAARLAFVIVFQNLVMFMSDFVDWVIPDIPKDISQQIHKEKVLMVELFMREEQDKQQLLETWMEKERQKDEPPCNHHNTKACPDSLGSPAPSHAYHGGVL
Test: short-circuit current (Eact-induced Cl- current) in basolaterally permeabilized FRT cells expressing TMEM16A; also YFP fluorescence quenching
Type: cell-based

Structure (SMILES): CC(C)=CC[C@@H](O)C1=CC(=O)c2c(O)ccc(O)c2C1=O [shikonin]
- IC50: 1.5 µM
